Source: patent US7208154B2, “Methods and compositions for the treatment of MHC-associated conditions” (Regents of the University of Michigan, priority 2002, dated 2007)

Legend:
calreticulin [1] = molecular target: T1, calreticulin (Homo sapiens, UniProt P27797); assay: Surface plasmon resonance, calreticulin immobilized on CM5 chip, pentapeptide binding; parameters: GST (cleaved yes); made in house; host or cells: E. coli (strain provided by Dr. Michalak); details: Biacore, 25° C., peptides 25–180 μM
T1 sequence (P27797 18-417): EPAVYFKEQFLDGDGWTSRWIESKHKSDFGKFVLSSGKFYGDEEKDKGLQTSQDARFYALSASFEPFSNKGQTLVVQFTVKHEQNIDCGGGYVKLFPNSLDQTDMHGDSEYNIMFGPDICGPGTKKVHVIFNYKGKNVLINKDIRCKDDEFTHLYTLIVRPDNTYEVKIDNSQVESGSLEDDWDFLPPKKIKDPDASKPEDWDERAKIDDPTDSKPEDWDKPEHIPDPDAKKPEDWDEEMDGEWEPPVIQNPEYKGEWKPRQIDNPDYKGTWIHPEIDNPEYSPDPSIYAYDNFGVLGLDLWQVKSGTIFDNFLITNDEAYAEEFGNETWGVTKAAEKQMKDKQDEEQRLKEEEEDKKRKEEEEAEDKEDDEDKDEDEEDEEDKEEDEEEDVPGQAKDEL
Protocol: The E. coli strain expressing GST fusion Calreticulin was kindly provided by Dr. Michalak [Baksh S et al. Protein Expr Purif., 3, 322–331, (1992)]. GST-Calreticulin was purified according to the manual of GST Gene Fusion System from Pharmacia. Factor Xa was used to liberate GST from calreticulin. In an additional step the column was treated with mono-Q to achieve >90% purity of calreticulin (MW=60 kD).
Prior to use, biosensor chips CM5 were docked into a Biacore® 2000 and preconditioned in water at 100 μl/min by applying two consecutive 20-μl pulses of 50 mM NaOH, then 10 mM HCl, and finally 0.1% SDS. Calreticulin was immobilized on CM5 surface by standard primary amine coupling [Lofas S et al. Biosensors & Bioelectronics, 10: 813–822, (1995), Johnsson B et al. J Mol Recognit., 8: 125–131, (1995), Karlsson R et al. J. Immunol. Methods, 200:121–133. (1997)]. Immobilizations were conducted at 25° C. in HBS-EP (10 mM HEPES, pH7.4, 150 mM NaCl, 1 mM EDTA, 0.005% Surfactant P-20), with a flow of 10 μl/min. […]
Shared epitope-expressing peptides potently bind to, and trigger, signaling through calreticulin. […] However, when calreticulin binding activities of the panel of pentapeptides were determined, one conspicuous exception was discovered, that is DKCLA FIG. 15 peptide #7 (Q70D).

calreticulin [2] = molecular target: T1, calreticulin; assay: Competitive inhibition of shared epitope peptide binding to calreticulin (Biacore); parameters: GST (cleaved yes); made in house; host or cells: E. coli (strain provided by Dr. Michalak)
Protocol: Prior to use, biosensor chips CM5 were docked into a Biacore® 2000 and preconditioned in water at 100 μl/min by applying two consecutive 20-μl pulses of 50 mM NaOH, then 10 mM HCl, and finally 0.1% SDS. Calreticulin was immobilized on CM5 surface by standard primary amine coupling [Lofas S et al. Biosensors & Bioelectronics, 10: 813–822, (1995), Johnsson B et al. J Mol Recognit., 8: 125–131, (1995), Karlsson R et al. J. Immunol. Methods, 200:121–133. (1997)]. Immobilizations were conducted at 25° C. in HBS-EP (10 mM HEPES, pH7.4, 150 mM NaCl, 1 mM EDTA, 0.005% Surfactant P-20), with a flow of 10 μl/min. The CM5 surface was activated by 7 min injection of 200 mM EDC/50 mM NHS to prepare a high-capacity surface, with manual injection of 100 μg/ml calreticulin until 5500 RU level was approached. Then 100 μl of 1M ethanolamine was used to block remaining activated group.
Calreticulin and peptide binding were performed at 25° C. in binding buffer (10 mM HEPES, pH8.0, 50 mM KCl, 0.5 mM CaCl2, 1% Triton-X100), with a flow rate of 10 μl/min. Peptides in the analyte ranged in concentration from 25–180 μM. Binding assays were repeated at least 3 times. Kinetic analysis was performed using Kinetic separate ka/kd fitting in BIA evaluation 3.0 software.
In order to determine whether DKCLA [SEQ ID NO: 16] and shared epitope-expressing peptides compete for the same binding site on calreticulin, competitive binding studies were performed in which the calreticulin binding activity of 14-mer shared epitope-expressing peptides was determined in the presence or absence of different pentapeptides. […] Thus, a Q70D substitution produces a shared epitope-antagonistic effect.

[3] = system: Human fibroblastoid M1 cells; assay: NO production (fluorometric nitrate/nitrite DAN assay) in M1 cells stimulated with bead-bound peptide; format: cell-based; details: for Block of NO induction by shared epitope-expressing peptide 65–79*0401: then bead-bound 65–79*0401 for 1–30 min
Protocol: DKCLA [SEQ ID NO: 16] binds to calreticulin, and inhibits binding of shared epitope-expressing peptides which trigger pro-oxidative signaling (FIG. 9). In follow up experiments the functional activity of DKCLA [SEQ ID NO: 16] was determined by measuring its effect on NO production by shared epitope-expressing peptides (i.e. 65–79*0401) and a control peptide, 65–79*0402. Human fibroblastoid M1 cells were pre-incubated overnight with or without 50 µg/ml of DKCLA. Subsequently culture medium was changed to NO assay buffer (20 mM Tris, pH7.6, 100 mM NaCl, 0.1 mM EDTA), and cells were stimulated for 1–30 min with Sepharose bead-bound peptide 65–79*0401 or control peptide 65–79*0402. At different time points, cultures were collected and NO levels were measured. Briefly, supernatants were collected and spun down to remove cell debris. Nitrate in the supernatant were first transformed to nitrite by incubation with nitrate reductase for 60 min in room temperature. Then, DAN was added to yield fluorescent 2,3-naphthotriazole. Fluorescence was measured with a Perkin-Elmer Fusion™ Universal Microplate Analyzer, using a wavelength excitation of 375 nm and an emission wavelength of 415 nm.
The nitrite and nitrate assay was a modified method from fluorometric determination of nitrite [Thomas Pet al. Anal. Biochem., 214:11–16, (1993), Miles AM et al. Methods 7: 40–47, (1995)]. Cell culture medium was changed to NO assay buffer (20mM Tris, pH7.6, 100 mM NaCl, 0.1 mM EDTA) and was treated by bead bound peptides. After treatment, supernatant was spun down to remove cell debris. Nitrate in the supernatant was first transformed to nitrite by incubation with Nitrate Reductase for 60min in room temperature. Then 2,3-diaminonaphthalene (DAN) was added to yield fluorescent 2,3-naphthotriazole. Fluorescence was measured by a FUSION™ Universal Microplate Analyzer with excitation at 375 nm and emission at 415 nm.

[4] = M1 cells pre-incubated overnight with 50 µg/ml

Substance	Binding to immobilized calreticulin (calreticulin [1])	Inhibition of 65–79*0401 binding to calreticulin (calreticulin [2]; Biacore assay, control experiment under identical conditions)	Block of NO induction by shared epitope-expressing peptide 65–79*0401 [3, 4]	Block of 65–78*0401 binding to calreticulin (calreticulin [2]; 14-mer peptide 65–78*0401)	Block of 65–78*0404 binding to calreticulin (calreticulin [2]; 14-mer peptide 65–78*0404)	IC50, inhibition of 65–78*0401 binding to calreticulin (calreticulin [2]; dose response analysis, FIG. 16C)	IC50, inhibition of 65–78*0404 binding to calreticulin (calreticulin [2]; dose response analysis, FIG. 16D)	Effect on baseline NO levels [3, 4]	Impact on NO levels with control peptide 65–79*0402 ([3]; bead-bound control peptide 65–79*0402)
Gln Lys Arg Ala Glu (QKRAE) [pentapeptide with A74E substitution]	did not bind to calreticulin	did not inhibit 65–79*0401 binding to calreticulin	did not inhibit 65–79*0401-triggered NO production	–	–	–	–	–	–
DKCLA [Asp Lys Cys Leu Ala]	bind very strongly to calreticulin	–	blocked NO induction	effectively and specifically blocked binding	effectively and specifically blocked binding	low-υM range	low-υM range	no measureable effect	no impact
